Entries after “also recorded” stand apart in the source; their conditions may differ.
Tests used:
[1] = test system: TNFα; settings: healthy males; cited from earlier work
[2] = clinical use; cited from earlier work
[3] = test system: p38α/β; experiment: MAPK pathway activity: phosphorylation of p38α substrate HSP27 (immunoblot); assay type: in vivo; settings: mice treated prior to LPS injection
Method: (§1) MKK3 and MKK6 are the main regulators of the α, β, γ and δ p38MAPK isoforms.
(§2) Tissue extracts were prepared using Triton lysis buffer (20 mM Tris [pH 7.4], 1% Triton X-100, 10% glycerol, 137mM NaCl, 2mM EDTA, 25mM β-glycerophosphate, 1 mM sodium orthovanadate, 1mM phenylmethylsulfonyl fluoride, and 10µg/mL aprotinin and leupeptin). Extracts (30µg protein) and immunoprecipitates (prepared from 2 mg protein) were examined by protein immunoblot analysis with antibodies to ERK1/2, phospho-ERK1/2, phospho-MKK3/6, p38α MAPK, phospho-p38, phospho-hsp27, phospho-JNK1/2, JNK1/2, caspase 3, cleaved caspase 3, cleaved PARP and phospho-eEF2 kinase (Ser366), all from Cell Signaling and MKK3 (Pharmingen), MKK6 (Stressgen), and GAPDH and eEF2 (Santa Cruz Biotechnology). The anti-p38γ and p38δ antibodies were raised against the peptides which correspond to the C termini of the proteins.

[4] = test system: D-Gal+LPS-treated mice; experiment: D-Gal+LPS-induced liver damage (hepatitis) in mice treated with p38 inhibitors; assay type: in vivo; settings: WT mice, inhibitor i.p. 15mg/kg prior to LPS injection
Text: (§3) MKK3 and MKK6 are the main regulators of the α, β, γ and δ p38MAPK isoforms. […] The specific action of these inhibitors on MAPK pathway activity was firstly examined. […] No changes in ERK or JNK phosphorylation were observed.
(§4) Mkk3^-/- (B6.129-Map2k3^tm1Flv), Mkk6^-l- (B6.129-Map2k6^tm1Flv) were as previously described. p38γ (B6.129-Mapk12^tm1) and p38δ (B6.129-Mapk13^tm1) mice were crossed with B6.129P2-Lyz2tm1(cre)Ifo/J and back-crossed for ten generations to the C57BL/6J background (The Jackson Labs) and genotyped by PCR analysis of genomic DNA. Radiation chimeras were generated by exposing recipient mice to two doses of ionizing radiation ([…]) and reconstituting them with 2x10^7 donor bone marrow cells by injection into the tail vein. […] Specificity of the depletion of cell populations was determined by flow cytometry of blood samples collected during the experiment.
Serum activities of alanine transaminase (ALT) and aspartate aminotrasferase (AST) were measured using the ALT and AST Reagent Kit (Biosystems Reagents) with a Benchmark Plus Microplate Spectrophotometer. Serum concentrations of cytokines were measured by multiplexed ELISA with a Luminex 200 analyzer (Millipore). […]

[5] = test system: IL6; experiment: serum IL6 in D-Gal+LPS-treated mice (inhibitors); assay type: in vivo
Text: as §3, §4
(§5) Serum activities of alanine transaminase (ALT) and aspartate aminotrasferase (AST) were measured using the ALT and AST Reagent Kit (Biosystems Reagents) with a Benchmark Plus Microplate Spectrophotometer. Serum concentrations of cytokines were measured by multiplexed ELISA with a Luminex 200 analyzer (Millipore).

[6] = test system: JNK; experiment: MAPK pathway activity: JNK phosphorylation (immunoblot); assay type: in vivo; settings: mice treated prior to LPS injection
Method: as §1, §2

[7] = test system: ERK; experiment: MAPK pathway activity: ERK phosphorylation (immunoblot); assay type: in vivo; settings: mice treated prior to LPS injection
Method: as §1, §2

[8] = test system: TNFα; experiment: serum TNFα in D-Gal+LPS-treated mice (inhibitors); assay type: in vivo
Text: as §3, §4, §5

[9] = test system: association of eEF2 with Tnfα mRNA; experiment: RNA-immunoprecipitation assay: eEF2 binding to Tnfα mRNA in RAW 264.7 cells; assay type: cell-based, Mouse; settings: RAW 264.7 cells pretreated 10µM for 30 min before LPS (60min)
Method: (A-D) BM-derived macrophages from p38γ/δ^Lyz-KO and Lyzs-cre mice were treated with LPS (10µg/ml) or TNFα (20ng/ml). Data were analyzed by two-way ANOVA coupled to Bonferroni post-tests. • (A) ELISA of TNFα and IL-6 in supernatants. • (B) qRT-PCR of Tnfα and Il-6 mRNA normalized to Gapdh, • (C) Immunoblot of BM-derived macrophage (BMM) lysates. • (D) Flow cytometry of phospho-p38 in BM-derived macrophages stimulated with LPS and TNFα for 30 min. Intracellular phospho-p38 is depicted in blue; red corresponds to the isotype control. • (D-I) Cells were treated with LPS. Tnfα mRNA was detected by qRT-PCR in immunoprecipitates (1mg protein) obtained with anti-eEF2. mRNA amounts are expressed relative to the amount detected in control IgG immunoprecipitates. Data were analyzed by Student's t-test unless otherwise indicated. • (E) Tnfα mRNA in RAW 264.7 cell immunoprecipitates. • (F) Tnfα, Hif1α, and Il-6 mRNA in RAW 264.7 cell immunoprecipitates. […] Tnfα mRNA was measured in immunoprecipitates. • (G-H) Tnfα mRNA in immunoprecipitates of BM-derived macrophages from Lyzs-cre and 38γ/δ^Lyz-KO mice (G) or WT or ΔMKK3/6 mice (H) after stimulation (60min). eEF2 in immunoprecipitates was detected by immunoblot (upper panel).
To assess whether eEF2 controls TNFα elongation it was examined the binding of eEF2 to Tnfα mRNA in immunoprecipitates of mRNA-eEF2 complexes in RAW cells. […]

[10] = target: T1, p38δ (Mus musculus, UniProt Q9Z1B7); settings: mice treated prior to LPS injection
T1 sequence (Q9Z1B7 1-366): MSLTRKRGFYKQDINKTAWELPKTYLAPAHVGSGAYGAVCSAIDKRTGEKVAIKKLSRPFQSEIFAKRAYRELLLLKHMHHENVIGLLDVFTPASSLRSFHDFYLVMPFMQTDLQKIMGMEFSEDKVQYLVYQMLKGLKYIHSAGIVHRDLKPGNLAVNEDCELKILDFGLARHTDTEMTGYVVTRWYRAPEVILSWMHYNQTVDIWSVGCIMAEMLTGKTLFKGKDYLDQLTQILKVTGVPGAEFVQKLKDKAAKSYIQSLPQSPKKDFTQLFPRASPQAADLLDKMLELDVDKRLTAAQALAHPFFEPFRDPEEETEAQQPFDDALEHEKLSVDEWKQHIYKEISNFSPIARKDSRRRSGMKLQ
Method: as §1, §2

SMILES	inhibition of ex-vivo LPS-induced TNFα [1]	liver enzyme elevations [2]	inhibition of p38α/β (loss of phosphorylation of p38α substrate HSP27) [3]	D-Gal+LPS-induced liver damage (hemorrhage, apoptosis and necrosis) [4]	serum levels of IL6 [5]	JNK phosphorylation [6]	ERK phosphorylation [7]	serum levels of TNFα [8]	association of eEF2 with Tnfα mRNA [9]	inhibition of p38δ activation (suppression of phosphorylation of its substrate eEF2K) [10]
Cn1c(NC[C@@H](N)Cc2ccccc2)nc(-c2ccncc2)c(-c2ccc3ccccc3c2)c1=O [AMG 548]	> 85%	random liver enzyme elevations								
Cc1ccc(-n2nc(C(C)(C)C)cc2NC(=O)Nc2ccc(OCCN3CCOCC3)c3ccccc23)cc1 [BIRB796]		some liver enzyme elevations	efficiently inhibited	improves liver condition; also recorded: protected	reduced	No changes	No changes	reduced	abolished	
C[S+]([O-])c1ccc(-c2nc(-c3ccncc3)c(-c3ccc(F)cc3)[nH]2)cc1 (stereo not drawn) [SB203580]			efficiently inhibited	intensifies; also recorded: exacerbated		No changes	No changes			only BIRB796 was able to inhibit
